# From US8853412B2, “Pyrrolidinone derivatives as GPR119 modulators for the treatment of diabetes, obesity, dyslipidemia and related disorders” (Sanofi, priority 2012, dated 2014)
# Molecular target: T1, human GPR119 (Homo sapiens, UniProt Q8TDV5)
# T1 construct: expressed in transfected cells; host or cells: HEK-293 cell line stably expressing recombinant GPR119
# T1 sequence (Q8TDV5 1-335): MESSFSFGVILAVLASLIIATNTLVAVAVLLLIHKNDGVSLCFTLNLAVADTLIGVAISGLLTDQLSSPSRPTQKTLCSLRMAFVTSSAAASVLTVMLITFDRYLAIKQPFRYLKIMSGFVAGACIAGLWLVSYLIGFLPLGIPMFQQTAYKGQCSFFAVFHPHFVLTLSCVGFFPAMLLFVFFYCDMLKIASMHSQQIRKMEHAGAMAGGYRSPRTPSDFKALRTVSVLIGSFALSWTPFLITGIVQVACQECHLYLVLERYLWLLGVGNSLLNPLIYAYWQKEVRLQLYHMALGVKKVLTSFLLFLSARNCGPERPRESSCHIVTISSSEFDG
# Test: Functional cellular assay measuring GPR119-mediated cAMP release (HTRF), HEK-293 cells stably expressing recombinant GPR119
# Type: cell-based
# Conditions: cell line expressing human GPR119; cAMP response, 30 minutes at room temperature
# Method: Functional Cellular Assays Measuring GPR119-Mediated cAMP Release.
# Compounds of the invention, which are agonists of GPR119, were characterized by functional assays measuring the cAMP response of HEK-293 cell lines stably expressing recombinant GPR119 from man, mouse or rat, or by using a hamster cell line HIT-T15 expressing GPR119 endogenously. The cAMP content was determined using a kit based on homogenous time-resolved fluorescence (HTRF) from Cisbio Corp. (cat. no. 62AM4PEC). For preparation, cells were split into T175 culture flasks and grown to near confluency in medium (DMEM/10% FCS for HEK-293 cells, and F-12K medium/10% horse serum/2.5% FCS for HIT-T15 cells, respectively). Medium was then removed and cells washed with PBS lacking calcium and magnesium ions, followed by proteinase treatment with accutase (Sigma-Aldrich, cat. no. A6964). Detached cells were washed and resuspended in assay buffer (1×HBSS; 20 mM HEPES, 0.1% BSA, 2 mM IBMX) and cellular density determined. They were then diluted to 400000 cells/mL and 25 μL-aliquots dispensed to the wells of 96-well plates. For measurement, 25 μL of test compound in assay buffer was added and incubated for 30 minutes at room temperature. After addition of HTRF reagents diluted in lysis buffer, the plates were incubated for 1 hour, followed by measuring the fluorescence ratio at 665 vs. 620 nm. Potency of the agonists was quantified by determining the concentrations that caused 50% of the maximal response/activation (EC50). See Table 10 for exemplary data obtained using the cell line expressing human GPR119.
row,SMILES,EC50
1,O=C1CCc2c(F)cc(N3CC[C@@H](Oc4ccc(Oc5ccc(F)cc5)cc4)C3=O)cc21 [Example 1-03],33 nM
2,CC(C)c1noc(-c2ccc(O[C@@H]3CCN(c4cc(F)c5c(c4)C(=O)CC5)C3=O)cn2)n1 [Example 3-02],141 nM
3,O=C1CCc2c(F)cc(N3CC[C@@H](Oc4ccc(OCCOCCO)nc4)C3=O)cc21 [Example 2-15],289 nM
4,CC(C)Oc1ccc(O[C@H]2CCN(c3cc(F)c4c(c3)C(=O)CC4)C2=O)cn1 [Example 3-20],1050 nM
5,O=C1CCc2c(F)cc(N3CC[C@@H](Oc4ccc(OC5CCC5)nc4)C3=O)cc21 [Example 2-72],16 nM
6,O=C1CCc2c(Br)cc(N3CC[C@@H](Oc4ccc(OCC5CC5)nc4)C3=O)cc21 [Example 1-18],287 nM
7,O=C1CCc2c(F)cc(N3CC[C@@H](Oc4ccc(OCC5CCCC5)nc4)C3=O)cc21 [Example 2-57],9 nM
8,"O=C1CCc2c(F)cc(N3CC[C@@H](Oc4ccc(OC5CC5)nc4)C3=O)cc21 [Example 3-13, (R)-3-(6-Cyclopropoxy-pyridin-3-yloxy)-1-(7-fluoro-3-oxo-indan-5-yl)-pyrrolidin-2-one]",19 nM
9,O=C1CCc2c(F)cc(N3CC[C@@H](Oc4ccc(OC[C@H]5CCCO5)nc4)C3=O)cc21 [Example 2-74],84 nM
10,CC(=O)N1CCCC(Oc2ccc(O[C@@H]3CCN(c4cc(F)c5c(c4)C(=O)CC5)C3=O)cn2)C1 (stereo partly shown) [Example 2-70],3010 nM
11,CCC(C)CCOc1ccc(O[C@@H]2CCN(c3cc(F)c4c(c3)C(=O)CC4)C2=O)cn1 (stereo partly shown) [Example 2-34],23 nM

# The remaining molecules from weak to strong by EC50, led by results:
row,EC50,SMILES
1,1310 nM,O=C1CCc2c(F)cc(N3CC[C@@H](Oc4ccc(OCCCO)nc4)C3=O)cc21 [Example 2-42]
2,1050 nM,CC(CCO)CCOc1ccc(O[C@@H]2CCN(c3cc(F)c4c(c3)C(=O)CC4)C2=O)cn1 (stereo partly shown) [Example 2-50]
3,138 nM,CCC(COC)Oc1ccc(O[C@@H]2CCN(c3cc(F)c4c(c3)C(=O)CC4)C2=O)cn1 (stereo partly shown) [Example 2-47]
4,109 nM,CCCc1cc(O[C@@H]2CCN(c3cc(F)c4c(c3)C(=O)CC4)C2=O)cnc1OCC1CC1 [Example 8-04]
5,94 nM,O=C1CCc2c(F)cc(N3CC[C@@H](Oc4ccc(O[C@@H]5CCOC5)nc4)C3=O)cc21 [Example 2-76]
6,77 nM,CCOCC(C)Oc1ccc(O[C@@H]2CCN(c3cc(F)c4c(c3)C(=O)CC4)C2=O)cn1 (stereo partly shown) [Example 2-51]
7,46 nM,O=C1CCc2ccc(N3CC[C@@H](Oc4ccc(OCC5CC5)nc4)C3=O)c(F)c21 [Example 9-03]
8,29 nM,CO[C@@H](C)COc1ccc(O[C@@H]2CCN(c3cc(F)c4c(c3)C(=O)CC4)C2=O)cn1 [Example 2-69]
